Experiments:
Format in all cases: cell-based
SNB19M = test: MTT assay for 7-day toxicity, SNB19M glioma cells (stably transfected with MGMT, MGMT+); conditions: Glioma cell, 168 h, 7 day MTT assay, glioma line SNB19M
Method: (§1) The cell culture techniques were carried out in a Class II microbiological safety cabinet which was swabbed with 70% IMS in distilled water before each use. Glioma cells were routinely cultured in Costar tissue culture flasks in RPMI 1640 liquid medium (containing 0.3 g/L L-glutamine and 2 g/L sodium bicarbonate) supplemented with 10% heat inactivated FBS (55-59° C.) for 1 hour to denature complement proteins which would otherwise evoke a cellular immune response resulting in cell lysis, 1% non-essential amino acids, 50 μg/mL gentamicin and 400 μg/mL G418 (vector selection reagent). Colorectal and melanoma cells were maintained in RPMI 1640 supplemented with 10% FBS. MRC-5 cells were cultured in EMEM+10% FBS, 1% pen/strep, 1% non-essential amino acids, 1% HEPES (1M) and 1% sodium bicarbonate.
(§2) Cells were grown at 37° C. in a humidified incubator in an atmosphere comprising 95% air/5% CO2. Cells were sub-cultured when growth exceeded approximately 80% confluence, normally twice weekly. The medium was aspirated from the flask and approximately 0.8 mL trypsin-EDTA 1× solution added. The cells were re-incubated at 37° C. until they had visibly detached from the flask. The cells were re-suspended in 5 mL medium and 0.5-1 mL was transferred to a new flask (25 cm^2) with 7 mL culture medium. The cells were further incubated at 37° C. To minimize phenotypic drift, cells were disposed of once they had been subcultured 30 times. New batches of cells were thawed rapidly in 37° C. water bath once taken from liquid nitrogen storage and re-suspended in 10 mL of culture medium in a 25 cm^2 flask. Cells were passaged twice to allow normal growth to resume prior to use in experiments.
(§3) Most test compounds, including temozolomide, were prepared as 100 mM stock solutions in DMSO and stored at −20° C. for not more than 6 months.
(§4) MTT Assay for 7-Day Toxicity Assay
(§5) This assay was first described in Mosmann, T., 1983, “Rapid colorimetric assay for cellular growth and survival: Application to proliferation and cytotoxicity assays”, Journal of Immunological Methods, Vol. 65, Nos. 1-2, pp. 55-63.
(§6) Glioma cell lines, SNB19 and U373, both stably transfected with MGMT (i.e., SNB19M and U373M) or their respective vector controls (i.e., SNB19V and U373V); colorectal carcinoma cell lines, HCT116, HT29, and DLD1; melanoma cell line, SKMEL-28; breast cell line, MCF-7; and normal human fetal lung fibroblast cell line, MRC-5; were used at 60-80% confluence, during the logarithmic phase of growth.
(§7) Following harvesting with trypsin/EDTA, cells in suspension were gently syringed through a 23 gauge needle to obtain a near-single cell suspension. Cells were then seeded into 96-well plates at the desired density in 180 μL culture medium if only one test compound was to be added, or in 160 μL if two test compounds were to be added in combination. Cells were allowed to attach overnight by incubation at 37° C. in 95% air/5% CO2. For the 7 day assay, the cell seeding densities for the different cell lines were as follows: SNB19V, SNB19M: 650 cells/well; U373V, U373M: 650 cells/well; SNB19VR, U373VR: 650 cells/well; HCT116, DLD-1, SKMEL-28, MRC-5, MCF-7: 400 cells/well.
(§8) The two peripheral lanes of each plate were used as blank wells (cell free) and filled with 200 μL of medium in order to minimise medium evaporation from the plate. A separate time zero (T0) plate was set up alongside other plates. Serial dilutions in tissue culture medium of a 100 mM stock of test compound were prepared immediately before each assay to ten times the final concentrations required. 20 μL was added to each well (200 μL total media per well) to achieve final concentrations of 0.5 μM, 1 μM, 5 μM, 10 μM, 50 μM, 100 μM, 500 μM, and 1000 μM. A minimum of four wells received the same test compound concentration. To control wells, including those in the T0 plate, 20 μL of medium was added. […]

SNB19V = test: MTT assay for 7-day toxicity, SNB19V glioma cells (vector control, MGMT-); conditions: Glioma cell, 168 h, 7 day MTT assay, glioma line SNB19V
Method: as §1, §2, §3, §4, §5, §6, §7, §8

U373V = test: MTT assay for 7-day toxicity, U373V glioma cells (vector control, MGMT-); conditions: Glioma cell, 168 h, 7 day MTT assay, glioma line U373V
Method: as §1, §2, §3, §4, §5, §6, §7, §8

U373M = test: MTT assay for 7-day toxicity, U373M glioma cells (stably transfected with MGMT, MGMT+); conditions: 7 day MTT assay, glioma line U373M
Method: as §1, §2, §3, §4, §5, §6, §7, §8

| SMILES | GI50 (SNB19M) [µM] | GI50 (SNB19V) [µM] | GI50 (U373V) [µM] | GI50 (U373M; Glioma cell, 168 h) [µM] | GI50 (U373M) [µM] |
| --- | --- | --- | --- | --- | --- |
| Cn1nnc2c(C(=O)NO)ncn2c1=O [RR-001, N-Hydroxy-3-methyl-4-oxo-3,4-dihydroimidazo[5,1-d][1,2,3,5]tetrazine-8-carboxamide] | 87.1 | 41 | – | – | – |
| Cn1nnc2c(-c3nc(-c4nccs4)cs3)ncn2c1=O [WW-010, 8-(2,4′-Bithiazol-2′-yl)-3-methylimidazo[5,1-d][1,2,3,5]tetrazin-4(3H)-one] | < 70 | < 45 | – | – | – |
| Cn1nnc2c(-c3nc(-c4cccs4)cs3)ncn2c1=O [WW-011, 3-Methyl-8-(4-(thiophen-2-yl)thiazol-2-yl)imidazo[5,1-d][1,2,3,5]tetrazin-4(3H)-one] | < 70 | < 45 | < 75 | – | – |
| Cn1nnc2c(-c3nc(-c4ccncc4)cs3)ncn2c1=O [WW-013] | < 70 | – | < 75 | < 60 | – |
| COCn1nnc2c(-c3nc(C(C)(C)C)cs3)ncn2c1=O [WW-014, 8-(4-tert-Butylthiazol-2-yl)-3-(methoxymethyl)imidazo[5,1-d][1,2,3,5]tetrazin-4(3H)-one] | < 70 | – | < 75 | < 60 | – |
| COCn1nnc2c(-c3nc(-c4nccs4)cs3)ncn2c1=O [WW-015, 8-(2,4′-Bithiazol-2′-yl)-3-(methoxymethyl)imidazo[5,1-d][1,2,3,5]tetrazin-4(3H)-one] | < 70 | – | < 75 | < 60 | – |
| COCn1nnc2c(-c3nc(-c4ccccc4)cs3)ncn2c1=O [WW-016, 3-(Methoxymethyl)-8-(4-phenylthiazol-2-yl)imidazo[5,1-d][1,2,3,5]tetrazin-4(3H)-one] | < 70 | – | < 75 | < 60 | – |
| COCn1nnc2c(-c3nc(-c4ccsc4)cs3)ncn2c1=O [WW-017] | < 70 | < 45 | – | – | – |
| COCn1nnc2c(-c3nc(-c4cccs4)cs3)ncn2c1=O [WW-018, 3-(Methoxymethyl)-8-(4-(thiophen-2-yl)thiazol-2-yl)imidazo[5,1-d][1,2,3, 5]tetrazin-4(3H)-one] | < 70 | < 45 | – | – | – |
| COCn1nnc2c(-c3nc(-c4ccncc4)cs3)ncn2c1=O [WW-019, 3-(Methoxymethyl)-8-(4-(pyridin-4-yl)thiazol-2-yl)imidazo[5,1-d][1,2,3,5]tetrazin-4(3H)-one] | < 70 | < 45 | – | – | – |
| C#CCn1nnc2c(-c3nc(C(C)(C)C)cs3)ncn2c1=O [WW-020, 8-(4-tert-Butylthiazol-2-yl)-3-(prop-2-ynyl)imidazo[5,1-d][1,2,3,5]tetrazin-4(3H)-one] | < 70 | – | – | – | – |
| C#CCn1nnc2c(-c3nc(-c4ccc(Br)cc4)cs3)ncn2c1=O [WW-021] | < 70 | – | < 75 | < 60 | – |
| Cn1nnc2c(-c3nc(-c4ccc(Br)cc4)cs3)ncn2c1=O [WW-022, 8-(4-(4-Bromophenyl)thiazol-2-yl)-3-methylimidazo[5,1-d][1,2,3,5]tetrazin-4(3H)-one] | < 70 | < 45 | – | – | – |
| COCn1nnc2c(-c3nc(-c4ccc(S(C)(=O)=O)cc4)cs3)ncn2c1=O [WW-027, 3-(Methoxymethyl)-8-(4-(4-(methylsulfonyl)phenyl)thiazol-2-yl)imidazo[5,1-d][1,2,3,5]tetrazin-4(3H)-one] | – | – | – | < 60 | 33.1 |
| CSCn1nnc2c(-c3nc(-c4ccccc4)cs3)ncn2c1=O [WW-030, 3-(Methylthiomethyl)-8-(4-phenylthiazol-2-yl)imidazo[5,1-d][1,2,3,5]tetrazin-4(3H)-one] | < 70 | – | < 75 | < 60 | – |
| COCn1nnc2c(-c3nc(-c4ccc5c(c4)OCO5)cs3)ncn2c1=O [WW-032] | < 70 | – | < 75 | < 60 | – |
| Cn1nnc2c(-c3nnc(-c4ccccc4)o3)ncn2c1=O [WW-041, 3-Methyl-8-(5-phenyl-1,3,4-oxadiazol-2-yl)imidazo[5,1-d][1,2,3,5]tetrazin-4(3H)-one] | – | < 45 | < 75 | – | – |
| C[S+]([O-])Cn1nnc2c(-c3nnc(-c4ccccc4)o3)ncn2c1=O (centres unmarked) [WW-043, 3-(Methylsulfinylmethyl)-8-(5-phenyl-1,3,4-oxadiazol-2-yl)imidazo[5,1-d][1,2,3,5]tetrazin-4(3H)-one] | < 70 | < 45 | – | – | – |
| Cn1nnc2c(-c3nnc(Nc4ccccc4)o3)ncn2c1=O [WW-044, 3-Methyl-8-(5-(phenylamino)-1,3,4-oxadiazol-2-yl)imidazo[5,1-d][1,2,3,5]tetrazin-4(3H)-one] | – | – | < 75 | – | – |
| CNc1nnc(-c2ncn3c(=O)n(C)nnc23)o1 [WW-045, 3-Methyl-8-(5-(methylamino)-1,3,4-oxadiazol-2-yl)imidazo[5,1-d][1,2,3,5]tetrazin-4(3H)-one] | – | < 45 | < 75 | – | – |
| C#CCn1nnc2c(-c3nc(-c4cccs4)cn3C)ncn2c1=O [WW-053, 8-(1-Methyl-4-(thiophen-2-yl)-1H-imidazol-2-yl)-3-(prop-2-ynyl)imidazo[5,1-d][1,2,3,5]tetrazin-4(3H)-one] | < 70 | < 45 | – | – | – |
| Cn1nnc2c(-c3nc4ccccc4o3)ncn2c1=O [WW-054, 8-(Benzo[d]oxazol-2-yl)-3-methylimidazo[5,1-d][1,2,3,5]tetrazin-4(3H)-one] | – | < 45 | < 75 | – | – |
| C[S+]([O-])Cn1nnc2c(-c3nc4ccccc4o3)ncn2c1=O (centres unmarked) [WW-056, 8-(Benzo[d]oxazol-2-yl)-3-(methylsulfinylmethyl)imidazo[5,1-d][1,2,3,5]tetrazin-4(3H)-one] | < 70 | < 45 | – | – | – |
| COCn1nnc2c(-c3nc4ccccc4o3)ncn2c1=O [WW-057] | < 70 | – | – | – | – |
| C#CCn1nnc2c(-c3nc4ccccc4s3)ncn2c1=O [WW-059, 8-(Benzo[d]thiazol-2-yl)-3-(prop-2-ynyl)imidazo[5,1-d][1,2,3, 5]tetrazin-4(3H)-one] | < 70 | < 45 | – | – | – |
| COCn1nnc2c(-c3nc4ccccc4s3)ncn2c1=O [WW-060, 8-(Benzo[d]thiazol-2-yl)-3-(methoxymethyl)imidazo[5,1-d][1,2,3,5]tetrazin-4(3H)-one] | < 70 | < 45 | – | – | – |
| C[S+]([O-])Cn1nnc2c(-c3nc4ccccc4s3)ncn2c1=O (centres unmarked) [WW-061, 8-(Benzo[d]thiazol-2-yl)-3-(methylsulfinylmethyl)imidazo[5,1-d][1,2,3,5]tetrazin-4(3H)-one] | < 70 | < 45 | – | – | – |
| COCn1nnc2c(-c3nc4ccccc4[nH]3)ncn2c1=O [WW-064, 8-(1H-Benzo[d]imidazol-2-yl)-3-(methoxymethyl)imidazo[5,1-d][1,2,3,5]tetrazin-4(3H)-one] | < 70 | < 45 | – | – | – |
| C#CCn1nnc2c(-c3nc4ccccc4n3C)ncn2c1=O [WW-065, 8-(1-Methyl-1H-benzo[d]imidazol-2-yl)-3-(prop-2-ynyl)imidazo[5,1-d][1,2,3,5]tetrazin-4(3H)-one] | < 70 | < 45 | – | – | – |
| Cn1nnc2c(-c3nc4ccccc4n3C)ncn2c1=O [WW-066, 3-Methyl-8-(1-methyl-1H-benzo[d]imidazol-2-yl)imidazo[5,1-d][1,2,3,5]tetrazin-4(3H)-one] | < 70 | < 45 | – | – | – |

From patent US9024018B2, “3-substituted-8-substituted-3H-imidazo[5,1-d][1,2,3,5]tetrazin-4-one compounds and their use” (Pharminox Limited, priority 2009, dated 2015)
